From ChEMBL document CHEMBL1201862, “PubChem BioAssay data set” (2004)
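A five-concentration, 48-hour dose response in 96-well plates underlies each endpoint, interpolated linearly between surrounding concentrations. Abbreviation: GI50, concentration required for 50% inhibition of growth.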 The source made the active and inactive calls. No stated cut-off is given here; in the data, active = GI50 up to about 1.1 µM and inactive = higher.

Experiments:
Experiment in all cases: NCI tumour cell line growth inhibition, 48 h
[1] = system: MCF7
[2] = system: UACC-62
[3] = system: HCT-15
[4] = system: NCI-H226
[5] = system: HCT-116
[6] = system: ACHN
[7] = system: EKVX
[8] = system: A498
[9] = system: NCI-H460
[10] = system: SK-MEL-28
[11] = system: SNB-19
[12] = system: U-251
[13] = system: A549
[14] = system: SW-620
[15] = system: OVCAR-5
[16] = system: IGROV-1
[17] = system: PC-3
[18] = system: DU-145
[19] = system: RXF 393
[20] = system: Malme-3M

Compound	GI50 [1]	GI50 [2]	GI50 [3] [µM]	GI50 [4]	GI50 [5]	GI50 [6]	GI50 [7]	GI50 [8]	GI50 [9]	GI50 [10]	GI50 [11]	GI50 [12]	GI50 [13]	GI50 [14]	GI50 [15]	GI50 [16]	GI50 [17]	GI50 [18]	GI50 [19]	GI50 [20]
CN1C/C(=C\c2cccs2)C2=NN(c3ccccc3)C(c3cccs3)C2C1 (stereo unspecified)	13.3 µM (inactive)	> 100 µM (inactive)	3.78	> 100 µM (inactive)	2.7 µM (inactive)	> 34 µM (inactive)	14.7 µM (inactive)	> 27.3 µM (inactive)	3.52 µM (inactive)	> 100 µM (inactive)	5.93 µM (inactive)	12 µM (inactive)	7.33 µM (inactive)	4.6 µM (inactive)	> 100 µM (inactive)	4.06 µM (inactive)	10.7 µM (inactive)	5.33 µM (inactive)	–	–
C#CCCOC1(OC)N=NC(C)(C)O1 (stereo unspecified)	–	> 100 µM (inactive)	> 100	> 100 µM (inactive)	> 100 µM (inactive)	> 100 µM (inactive)	> 100 µM (inactive)	> 100 µM (inactive)	> 100 µM (inactive)	> 100 µM (inactive)	> 100 µM (inactive)	> 100 µM (inactive)	> 100 µM (inactive)	> 100 µM (inactive)	> 100 µM (inactive)	> 100 µM (inactive)	> 100 µM (inactive)	> 100 µM (inactive)	> 100 µM (inactive)	> 100 µM (inactive)
CC(C)(C)OC(=O)NCCCC(=O)NC1(c2cc3ccccc3s2)CCCCC1	16.3 µM (inactive)	10.8 µM (inactive)	15.6	–	14 µM (inactive)	22.8 µM (inactive)	8.26 µM (inactive)	17.6 µM (inactive)	17 µM (inactive)	14.1 µM (inactive)	34.8 µM (inactive)	–	25.6 µM (inactive)	15.8 µM (inactive)	–	18 µM (inactive)	–	24.8 µM (inactive)	9.42 µM (inactive)	16.2 µM (inactive)
CC1=CC=C2c3ccccc3C=CN2C(=O)C1	45.3 µM (inactive)	84.9 µM (inactive)	45.9	54.8 µM (inactive)	40.8 µM (inactive)	62.5 µM (inactive)	23 µM (inactive)	–	53.2 µM (inactive)	90.4 µM (inactive)	70.5 µM (inactive)	60.4 µM (inactive)	41.3 µM (inactive)	49.8 µM (inactive)	> 100 µM (inactive)	> 100 µM (inactive)	50 µM (inactive)	52 µM (inactive)	–	> 100 µM (inactive)
CC[C@@H](/C=C\CCC(=O)C[C@H](O)CCC=C(C)C)O[Si](C(C)C)(C(C)C)C(C)C	79.4 µM (inactive)	> 100 µM (inactive)	> 100	> 100 µM (inactive)	> 100 µM (inactive)	> 100 µM (inactive)	> 100 µM (inactive)	> 100 µM (inactive)	> 100 µM (inactive)	> 100 µM (inactive)	> 100 µM (inactive)	> 100 µM (inactive)	73.3 µM (inactive)	> 100 µM (inactive)	> 100 µM (inactive)	> 100 µM (inactive)	75.5 µM (inactive)	> 100 µM (inactive)	83.9 µM (inactive)	–
COCCOC(=O)NCn1cc(-c2ccccc2)nn1	> 100 µM (inactive)	–	> 100	13.8 µM (inactive)	> 100 µM (inactive)	> 100 µM (inactive)	> 100 µM (inactive)	–	> 100 µM (inactive)	> 100 µM (inactive)	> 100 µM (inactive)	> 100 µM (inactive)	> 100 µM (inactive)	> 100 µM (inactive)	> 100 µM (inactive)	> 100 µM (inactive)	> 100 µM (inactive)	> 100 µM (inactive)	–	> 100 µM (inactive)
CN(C(=O)Cc1cc(Cl)c(Cl)cc1NC(=O)CN)[C@H]1CCCC[C@@H]1N1CCCC1	28.6 µM (inactive)	16 µM (inactive)	37	–	30 µM (inactive)	79.8 µM (inactive)	> 100 µM (inactive)	20.2 µM (inactive)	29.6 µM (inactive)	–	45.8 µM (inactive)	17.8 µM (inactive)	39.1 µM (inactive)	62.7 µM (inactive)	> 100 µM (inactive)	> 100 µM (inactive)	37.1 µM (inactive)	> 100 µM (inactive)	68.7 µM (inactive)	20.8 µM (inactive)
O=C(/C=C\c1ccccc1)Oc1ccc(/C=C2\CCCCC2=O)cc1	39.5 µM (inactive)	0.1 µM (active)	23.3	–	26.1 µM (inactive)	37.2 µM (inactive)	57.1 µM (inactive)	> 100 µM (inactive)	73.5 µM (inactive)	2.18 µM (inactive)	> 100 µM (inactive)	30.4 µM (inactive)	46.6 µM (inactive)	40.3 µM (inactive)	> 100 µM (inactive)	37.8 µM (inactive)	46.9 µM (inactive)	> 100 µM (inactive)	–	38.9 µM (inactive)
CC(=O)Nc1ccc2c(C(=O)O)c(C)c(O)nc2n1	> 100 µM (inactive)	> 100 µM (inactive)	> 100	33.7 µM (inactive)	71.3 µM (inactive)	> 100 µM (inactive)	> 100 µM (inactive)	–	> 100 µM (inactive)	–	25.5 µM (inactive)	46.9 µM (inactive)	> 100 µM (inactive)	> 100 µM (inactive)	> 100 µM (inactive)	> 100 µM (inactive)	> 100 µM (inactive)	> 100 µM (inactive)	> 100 µM (inactive)	95.7 µM (inactive)
CCOC(=O)C#Cc1ccc(C#CC(=O)OCC)cc1	1.54 µM (inactive)	3.37 µM (inactive)	1.81	3.3 µM (inactive)	1.7 µM (inactive)	3.45 µM (inactive)	7.74 µM (inactive)	14.2 µM (inactive)	5.13 µM (inactive)	2.84 µM (inactive)	5.02 µM (inactive)	2.51 µM (inactive)	3.75 µM (inactive)	3.15 µM (inactive)	11.8 µM (inactive)	1.72 µM (inactive)	6.85 µM (inactive)	–	2.62 µM (inactive)	3.35 µM (inactive)
C=CC(C)(C)C1(CC(OC)OC)C(=O)N(C)c2ccccc21 (stereo unspecified)	> 25 µM (inactive)	> 25 µM (inactive)	> 25	> 25 µM (inactive)	> 25 µM (inactive)	> 25 µM (inactive)	> 25 µM (inactive)	> 25 µM (inactive)	> 25 µM (inactive)	> 25 µM (inactive)	> 25 µM (inactive)	> 25 µM (inactive)	> 25 µM (inactive)	> 25 µM (inactive)	> 25 µM (inactive)	–	> 25 µM (inactive)	> 25 µM (inactive)	> 25 µM (inactive)	–
NC(=O)CC1OC(=O)Cc2cc3c(c(O)c21)C(=O)c1c(O)cccc1C3=O (stereo unspecified)	> 100 µM (inactive)	> 100 µM (inactive)	71.4	> 100 µM (inactive)	> 100 µM (inactive)	41.5 µM (inactive)	> 100 µM (inactive)	43.9 µM (inactive)	89.5 µM (inactive)	> 100 µM (inactive)	> 100 µM (inactive)	> 100 µM (inactive)	> 100 µM (inactive)	> 100 µM (inactive)	> 100 µM (inactive)	69.3 µM (inactive)	> 100 µM (inactive)	> 100 µM (inactive)	–	> 100 µM (inactive)
BrCc1ccc2ccc3ccc(CBr)nc3c2n1	1.88 µM (inactive)	3.26 µM (inactive)	2.01	5.92 µM (inactive)	2.34 µM (inactive)	2.1 µM (inactive)	9.59 µM (inactive)	2.64 µM (inactive)	4.23 µM (inactive)	2.81 µM (inactive)	12.7 µM (inactive)	5.56 µM (inactive)	13.3 µM (inactive)	2.2 µM (inactive)	9.44 µM (inactive)	4.01 µM (inactive)	1.79 µM (inactive)	8.18 µM (inactive)	2.24 µM (inactive)	–
O=C1CCN2C(=N1)Sc1ccccc12	> 100 µM (inactive)	> 100 µM (inactive)	> 100	> 100 µM (inactive)	> 100 µM (inactive)	> 100 µM (inactive)	> 100 µM (inactive)	–	> 100 µM (inactive)	> 100 µM (inactive)	> 100 µM (inactive)	> 100 µM (inactive)	> 100 µM (inactive)	> 100 µM (inactive)	> 100 µM (inactive)	> 100 µM (inactive)	> 100 µM (inactive)	> 100 µM (inactive)	> 100 µM (inactive)	> 100 µM (inactive)
Cc1c(C(=O)c2ccccc2)[n+]([O-])c2cc(Cl)c(Cl)cc2[n+]1[O-]	10.7 µM (inactive)	11.4 µM (inactive)	1.99	2.51 µM (inactive)	13.5 µM (inactive)	14.3 µM (inactive)	13.5 µM (inactive)	19.6 µM (inactive)	15.9 µM (inactive)	14.7 µM (inactive)	16.6 µM (inactive)	15.6 µM (inactive)	13 µM (inactive)	–	17.9 µM (inactive)	1.97 µM (inactive)	17.4 µM (inactive)	16.1 µM (inactive)	6.08 µM (inactive)	–
Cc1cn(C2CC(OC(=O)c3ccc(Cl)cc3)C(COC(=O)c3ccc(Cl)cc3)O2)c(=O)[nH]c1=O (stereo unspecified)	> 100 µM (inactive)	> 100 µM (inactive)	> 100	> 100 µM (inactive)	> 100 µM (inactive)	> 100 µM (inactive)	> 100 µM (inactive)	–	> 100 µM (inactive)	> 100 µM (inactive)	> 100 µM (inactive)	> 100 µM (inactive)	> 100 µM (inactive)	> 100 µM (inactive)	> 100 µM (inactive)	> 100 µM (inactive)	> 100 µM (inactive)	> 100 µM (inactive)	–	> 100 µM (inactive)
